Reference: patent US20020111274A1, “1-alkyl-3-[1-(substituted phenyl) benzotriazol-6-yl] uracils” (BASF Aktiengesellschaft, priority 2000, published 2002)

melting point: 160 °C
SMILES: CCc1cccc(-n2nnc3cc(F)c(-n4c(=O)cc(C(F)(F)F)[nH]c4=O)cc32)c1 [Example 13, 3-[1-(3-ethylphenyl)-5-fluoro-1H-1,2,3-benzotriazol-6-yl]-6-(trifluoromethyl)-2,4(1H,3H)-pyrimidinedione]
